In the Kinase Knowledgebase extract (Sharma et al. 2016) one finds IC50 data, which are given here for six compounds.

The IC50 is the concentration at which inhibition is half-maximal.

Test [1] deals with PIK3CA (human) (UniProt P42336). The experiment in a line: Inhibition of PIK3CA Kinase Activity (Fluorescence Polarization Format Assay). (In general: Fluorescence polarisation rises when a labelled molecule tumbles more slowly, as on binding a larger partner.)
Test [2] concerns the target ERBB2;PIK3CA (human) (UniProt P42336). The test can be described thus: Inhibition of ERBB2 and PIK3CA Kinase Activity in MDA361 Cells. To be noted: mda-361.

Sequence of PIK3CA (human) (P42336 whole entry, looked up): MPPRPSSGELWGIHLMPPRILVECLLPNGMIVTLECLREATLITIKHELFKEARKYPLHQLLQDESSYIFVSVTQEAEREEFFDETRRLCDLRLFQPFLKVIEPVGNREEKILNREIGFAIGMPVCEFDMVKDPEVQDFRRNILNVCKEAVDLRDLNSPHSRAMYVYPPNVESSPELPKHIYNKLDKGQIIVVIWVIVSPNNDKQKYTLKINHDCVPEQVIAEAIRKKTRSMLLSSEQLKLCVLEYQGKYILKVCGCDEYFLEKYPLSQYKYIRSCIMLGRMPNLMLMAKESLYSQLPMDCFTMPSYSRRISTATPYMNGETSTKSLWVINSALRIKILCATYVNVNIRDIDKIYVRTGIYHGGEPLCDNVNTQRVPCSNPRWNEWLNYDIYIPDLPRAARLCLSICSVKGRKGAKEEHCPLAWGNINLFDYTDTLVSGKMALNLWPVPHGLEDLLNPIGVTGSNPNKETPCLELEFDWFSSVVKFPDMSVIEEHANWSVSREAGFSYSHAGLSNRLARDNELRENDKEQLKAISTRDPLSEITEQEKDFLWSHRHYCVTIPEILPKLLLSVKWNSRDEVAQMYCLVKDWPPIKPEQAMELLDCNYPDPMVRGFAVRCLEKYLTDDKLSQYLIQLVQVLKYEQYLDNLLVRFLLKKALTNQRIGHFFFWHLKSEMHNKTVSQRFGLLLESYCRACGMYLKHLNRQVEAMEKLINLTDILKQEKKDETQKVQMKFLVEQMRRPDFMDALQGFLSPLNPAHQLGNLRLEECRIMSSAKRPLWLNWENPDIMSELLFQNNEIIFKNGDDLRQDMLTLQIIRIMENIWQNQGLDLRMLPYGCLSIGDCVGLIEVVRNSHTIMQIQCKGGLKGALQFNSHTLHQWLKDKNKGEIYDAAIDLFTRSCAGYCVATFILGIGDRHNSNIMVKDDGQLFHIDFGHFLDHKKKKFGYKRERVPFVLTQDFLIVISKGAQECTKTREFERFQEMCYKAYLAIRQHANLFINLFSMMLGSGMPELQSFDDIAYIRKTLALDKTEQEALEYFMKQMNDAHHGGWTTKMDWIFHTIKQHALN
Sequence of ERBB2;PIK3CA (human) (P42336 whole entry, looked up): as above

In turn, `O=C(Nc1ccncc1)Nc1ccc(-c2nc(N3CCOCC3)c3ccn(CCN4CCCC4)c3n2)cc1` gave an IC50 in test [1] of 30 nM. In other words, the double-digit nanomolar range. On the same count and under the same terms, for `Oc1cccc(-c2nc(N3CCOCC3)c3cc[nH]c3n2)c1` the value was 43 nM. Consider `CN(C)CCN(C)C(=O)c1ccc(NC(=O)Nc2ccc(-c3nc(N4CCOCC4)c4ccn(CC(F)(F)F)c4n3)cc2)cc1`, for which the IC50 in test [2] was < 3 nM. In the case of `Cc1cccc(-c2nc(N3CCOCC3)c3[nH]ccc3n2)c1`, the half-inhibitory concentration (IC50) in test [1] came to 1510 nM. Consider `CCNC(=O)Nc1ccc(-c2nc(N3CCOCC3)c3ccn(CCN(C)C)c3n2)cc1`, for which the IC50 in test [1] was 226 nM. This IC50 is about 6.7-fold lower than that of the compound before.

In turn, `CN(C)CCn1ccc2c(N3CCOCC3)nc(-c3cccc(O)c3)nc21` showed an IC50 in test [1] of 76 nM.
